We go through 5 compounds from patent publication US8173360B2, “Cell death inhibitor” (Takeda Pharmaceutical Company Limited, priority 2002, dated 2012).

The subject of experiment [1] is primary cardiomyocytes derived from rat neonates. Briefly: Inhibition of serum depletion-induced myocardial cell death (WST-8 viable cell count). The following applies: serum depletion, 4 days, WST-8 viable cell count. In kind it is cell-based. From the text:
Neonates (within one day after birth) were obtained from pregnant Wistar rats purchased from Charles River Japan, Inc. and anesthetized with ether. After sterilization with 70% ethanol, the heart was removed with forceps. After washing with phosphate buffered saline (manufactured by Takara Co., Ltd., T900), the heart removed was minced with surgical scissors. The pieces of tissue were washed 4 or 5 times with phosphate buffered saline to remove most of non-cardiomyocytes derived from blood. To the pieces of tissue corresponding to 10 neonates, 5 ml of an enzyme solution [which is a solution of trypsin (1.25 mg) (manufactured by Difco) and collagenase (0.25 mg) (manufactured by Sigma) in phosphate buffer (1 ml)] was added. The mixture was stirred for 15 minutes with a stirrer while maintaining at 37° C. After 2.5 ml of the enzyme solution was replenished, the mixture was stirred for further 15 minutes, and this procedure was repeated twice. Subsequently, Medium 199 (manufactured by Gibco) containing 10% fetal cow serum (manufactured Biowicker, Inc.) was added to the mixture in a half volume of the enzyme solution to terminate the enzymatic reaction. After filtering through a cell strainer (manufactured by Falcon), the mixture was centrifuged at 400×g for 5 minutes to collect the cells.
The cells were then recovered, filtered through a cell strainer and centrifuged at 400×g for 5 minutes to collect primary cardiomyocytes derived from rat neonates.
Next, the primary cardiomyocytes derived from rat neonates (corresponding 10 neonates) were suspended in 2 ml of a hypotonic solution [solution obtained by dissolving NH4Cl (8.29 g), KHCO3 (1.0 g) and EDTA/2Na (ethylenediaminetetraacetic acid disodium; manufactured by Dojin Chemical Laboratory) (37 mg) in water (1 L)]. The suspension was allowed to stand for 3 minutes to disrupt erythrocytes. To the suspension 10 ml of Medium 199 containing 10% fetal cow serum was added, and the mixture was centrifuged at 400×g for 5 minutes to collect the primary cardiomyocytes derived from rat neonates. […] An aliquot of the cardiomyocytes suspension obtained was taken out and 0.3% trypan blue was added thereto. The mixture was gently stirred and the count of cardiomyocytes was counted with a hemocytometer.
Incubation was continued for further 4 days to induce cell death. […]
The mean value (±SD) in the minimum effective concentration of Compound 1 required for inhibiting the cell death was 0.015±0.011 μM. The concentration of Compound 1 required for increasing the mean cell count by 30% when compared to the cell count without the addition of Compound 1 was determined to be the minimum effective concentration. […]
For orientation: Tetrazolium assays rely on reduction of a dye to a coloured formazan, in cell work by metabolically active cells.

In experiment [2] the test system is Human normal articular chondrocytes. Briefly: Inhibitory activity against cell death of human articular chondrocytes induced by NO (MTT). In kind it is cell-based. To be noted: 100 μM; 1.5 mM sodium nitroprusside 5 hours; mean ±SD. The procedure:
Human normal articular chondrocytes (Clonetics, Inc.) were proliferated in a growth medium for articular chondrocytes (CGM, Clonetics, Inc.) in monolayer culture. Then, the cells were suspended in 1.2% alginate-containing 155 mM NaCl solution in a density of 2.0×10^6 cells/ml, and beads having a 2 mm diameter were prepared using a syringe with a 22 gauge needle. The beads were incubated in a differentiation medium for articular chondrocytes (CDM, Clonetics, Inc.) charged in a 96-well round-bottomed plate (1 bead/well, manufactured by FALCON) for further 7 days. The medium was replaced by α-modified minimum essential medium containing Compound 1 (0.1 μM or 1 μM) and 10% fetal cow serum, followed by incubation for 48 hours and then for 5 hours in the co-presence of 1.5 mM sodium nitroprusside (NO generator, manufactured by Sigma). As control drugs, caspase 3 inhibitor (Z-DEVD-FMK (SEQ ID NO: 5), 100 μM, manufactured by R & D Systems, Inc.) and caspase 9 inhibitor (Z-LEHD-FMK (SEQ ID NO: 6), 100 μM, manufactured by R & D Systems, Inc.) were similarly monitored for their activities. After completion of the experiment, alginate was removed and the cell survival rate was determined by the MTT technique.
In the table, the numerical values indicate mean values (±SD) of the cell death inhibition rates as converted from the measurement data by the MTT technique. The cell survival rate after the addition of 1.5 mM sodium nitroprusside (without addition of either Compound 1 or control drug) was 31.9%.

Experiment [3] concerns the target T1, rat MIF (Rattus norvegicus, UniProt P30904).
T1 construct: the region encoding MIF was amplified from the complementary DNA (cDNA) library of rat and mouse brains; made in house; host or cells: Escherichia coli BL21 (DE3)
The experiment can be described thus: Binding to immobilized rat MIF by surface plasmon resonance (BIACORE 3000). The following applies: 10 μM in PBS, rat MIF immobilized on sensor chip CM5. The procedure:
The binding of rat MIF obtained in REFERENCE EXAMPLE 6 to Compound 1 obtained in REFERENCE EXAMPLE 1 was analyzed using BIACORE 3000 (manufactured by Biacore).
Rat MIF was immobilized on a sensor chip CM5 (manufactured by Biacore). Then, phosphate buffered saline (PBS) containing 10 μM of Compound 1 was flown over the sensor chip and changes in the surface plasmon resonance signal were monitored as the binding of the compound to rat MIF.
Rat MIF obtained in REFERENCE EXAMPLE 6 was immobilized on a sensor chip CM5 (manufactured by Biacore Co., Ltd.). Thereafter, phosphate buffered saline (PBS) containing 10 μM of 3-[2-(4-oxo-4H-1,3-benzothiazin-2-yl)-4-pyridyl]propionic acid (the compound of EXAMPLE 308 described in WO 03/020719) was flown over the sensor chip and changes in surface plasmon resonance signal were monitored as the binding of the compound to rat MIF.
(SPR reads the build-up and loss of mass on a sensor chip optically.)

As for `C=CC1=C(C)c2cc3[n-]c(cc4[n-]c(cc5nc(cc1n2)C(C)=C5C=C)c(C)c4CCC(=O)O)c(CCC(=O)O)c3C.O.[Fe+2]` [hematin, reference compound], the “myocardial cell death inhibitory activity” value in experiment [1] was “exhibit the activity of inhibiting myocardial cell death”.
Regarding Z-DEVD-FMK [reference compound], in experiment [2], the “Cell Death Inhibition Rate” value is given as 49.7 ± 10.3.
Consider `O=C(O)CCc1ccnc(-c2nc(=O)c3ccccc3s2)c1` [3-[2-(4-oxo-4H-1,3-benzothiazin-2-yl)-4-pyridyl]propionic acid], for which the “binding of the compound to rat MIF (changes in surface plasmon resonance signal)” value in experiment [3] was “could be selected as the substance binding to MIF”.
With “Z-LEHD-FMK (Z N-cap, FMK C-terminus) [reference compound]”, the “Cell Death Inhibition Rate” value in experiment [2] came out at 62.7 ± 10.6.
For the compound hemin [reference compound], the “myocardial cell death inhibitory activity” value in experiment [1] is recorded as “exhibit the activity of inhibiting myocardial cell death”.
